Test: xn = mol fraction of the nth substance listed
Conditions: Liquid; for mass density: 293.15 K, Vibrating tube method; for viscosity: 100 kPa, Concentric cylinders viscometry

Cc1ccc(C)c(C)c1 [1,2,4-trimethylbenzene] + CCC(C)O
Conditions | mass density [kg/m3] | viscosity [mPa·s]
303.15 K, x2 = 0 | – | 0.779
303.15 K, x2 = 0.1001 | – | 0.774
303.15 K, x2 = 0.2261 | – | 0.786
303.15 K, x2 = 0.3 | – | 0.802
303.15 K, x2 = 0.3966 | – | 0.858
303.15 K, x2 = 0.5298 | – | 0.923
303.15 K, x2 = 0.6001 | – | 1.01
303.15 K, x2 = 0.7001 | – | 1.16
303.15 K, x2 = 0.7997 | – | 1.4
303.15 K, x2 = 0.9001 | – | 1.8
313.15 K, x2 = 0 | – | 0.692
313.15 K, x2 = 0.1001 | – | 0.687
313.15 K, x2 = 0.2261 | – | 0.689
313.15 K, x2 = 0.3 | – | 0.698
313.15 K, x2 = 0.3966 | – | 0.74
60000 kPa, x2 = 0.3011 | 892.5 | –
60000 kPa, x2 = 0.4002 | 886.9 | –
60000 kPa, x2 = 0.5001 | 880.9 | –
60000 kPa, x2 = 0.5997 | 874.4 | –
60000 kPa, x2 = 0.6999 | 867.7 | –
60000 kPa, x2 = 0.7999 | 860.4 | –
60000 kPa, x2 = 0.9 | 852.5 | –
70000 kPa, x2 = 0 | 912.6 | –
70000 kPa, x2 = 0.1 | 908.3 | –
70000 kPa, x2 = 0.1989 | 903 | –
70000 kPa, x2 = 0.3011 | 897.3 | –
70000 kPa, x2 = 0.4002 | 891.8 | –
70000 kPa, x2 = 0.5001 | 885.8 | –
70000 kPa, x2 = 0.5997 | 879.4 | –
70000 kPa, x2 = 0.6999 | 872.7 | –
70000 kPa, x2 = 0.7999 | 865.5 | –
70000 kPa, x2 = 0.9 | 857.5 | –
80000 kPa, x2 = 0 | 916.9 | –
80000 kPa, x2 = 0.1 | 912.9 | –
80000 kPa, x2 = 0.1989 | 907.6 | –
80000 kPa, x2 = 0.3011 | 902 | –
80000 kPa, x2 = 0.4002 | 896.4 | –
80000 kPa, x2 = 0.5001 | 890.4 | –
80000 kPa, x2 = 0.5997 | 884 | –
80000 kPa, x2 = 0.6999 | 877.3 | –
80000 kPa, x2 = 0.7999 | 870.1 | –
80000 kPa, x2 = 0.9 | 862.3 | –
90000 kPa, x2 = 0 | 921.1 | –
90000 kPa, x2 = 0.1 | 917.2 | –
90000 kPa, x2 = 0.1989 | 912 | –
90000 kPa, x2 = 0.3011 | 906.4 | –
90000 kPa, x2 = 0.4002 | 900.9 | –
90000 kPa, x2 = 0.5001 | 894.9 | –
90000 kPa, x2 = 0.5997 | 888.6 | –
90000 kPa, x2 = 0.6999 | 881.9 | –
90000 kPa, x2 = 0.7999 | 874.8 | –
90000 kPa, x2 = 0.9 | 866.8 | –
100000 kPa, x2 = 0 | 925.1 | –
100000 kPa, x2 = 0.1 | 921.4 | –
100000 kPa, x2 = 0.1989 | 916.2 | –
100000 kPa, x2 = 0.3011 | 910.6 | –
100000 kPa, x2 = 0.4002 | 905.1 | –
100000 kPa, x2 = 0.5001 | 899.2 | –
100000 kPa, x2 = 0.5997 | 892.9 | –
100000 kPa, x2 = 0.6999 | 886.2 | –
100000 kPa, x2 = 0.7999 | 879 | –
100000 kPa, x2 = 0.9 | 871.2 | –
110000 kPa, x2 = 0 | 929 | –
110000 kPa, x2 = 0.1 | 925.4 | –
110000 kPa, x2 = 0.1989 | 920.3 | –
110000 kPa, x2 = 0.3011 | 914.8 | –
110000 kPa, x2 = 0.4002 | 909.2 | –
110000 kPa, x2 = 0.5001 | 903.4 | –
110000 kPa, x2 = 0.5997 | 897.1 | –
110000 kPa, x2 = 0.6999 | 890.4 | –
110000 kPa, x2 = 0.7999 | 883.3 | –
110000 kPa, x2 = 0.9 | 875.4 | –
120000 kPa, x2 = 0 | 932.8 | –
120000 kPa, x2 = 0.1 | 929.3 | –
120000 kPa, x2 = 0.1989 | 924.2 | –
120000 kPa, x2 = 0.3011 | 918.7 | –
120000 kPa, x2 = 0.4002 | 913.2 | –
120000 kPa, x2 = 0.5001 | 907.4 | –
120000 kPa, x2 = 0.5997 | 901.2 | –
120000 kPa, x2 = 0.6999 | 894.4 | –
120000 kPa, x2 = 0.7999 | 887.3 | –
120000 kPa, x2 = 0.9 | 879.5 | –
130000 kPa, x2 = 0 | 936.4 | –
130000 kPa, x2 = 0.1 | 933.1 | –
130000 kPa, x2 = 0.1989 | 928 | –
130000 kPa, x2 = 0.3011 | 922.6 | –
130000 kPa, x2 = 0.4002 | 917.1 | –
130000 kPa, x2 = 0.5001 | 911.3 | –
130000 kPa, x2 = 0.5997 | 905.1 | –
130000 kPa, x2 = 0.6999 | 898.4 | –
130000 kPa, x2 = 0.7999 | 891.2 | –
130000 kPa, x2 = 0.9 | 883.4 | –
140000 kPa, x2 = 0 | 939.9 | –
140000 kPa, x2 = 0.1 | 936.7 | –
140000 kPa, x2 = 0.1989 | 931.6 | –
140000 kPa, x2 = 0.3011 | 926 | –
140000 kPa, x2 = 0.4002 | 920.5 | –
140000 kPa, x2 = 0.5001 | 914.9 | –
140000 kPa, x2 = 0.5997 | 908.7 | –
140000 kPa, x2 = 0.6999 | 901.9 | –
140000 kPa, x2 = 0.7999 | 894.7 | –
140000 kPa, x2 = 0.9 | 887 | –

— the NIST ThermoML archive (doi:10.1016/j.jct.2017.03.006)
